Here are results for 4 substances from patent US20030118510A1 (priority 2001, published 2003).

The subject of data set [1] is blood glucose. Put plainly: Blood glucose following intratracheal administration of 2K PEG insulin in rats (Example 12, P-2002-010). Conditions: i.t. Type of data set: in vivo, male rats.
Text: Fourteen (N=7/Group) fasted male rats (Hilltop Lab Animals, Scottsdale, Pa. (300-350 g)) with indwelling jugular vein catheters (JVC) were used for this study. […] Animal 2-3 was dropped from the study due to a clogged catheter.
Data set [2] deals with blood glucose. Put plainly: Blood glucose following intratracheal administration of 750-1 PEG insulin in rats (Example 10, P-2002-001). The data set is classed as in vivo, male rats. The settings on record: i.t. How it is done: (§1) The rats were lightly anesthetized using inhaled 3.0-5.0% Isoflurane (Abbott Laboratories) mixed with oxygen for approximately 5 minutes in a plexiglass anesthesia chamber. Administration was accomplished by insertion of a gavage needle (Popper & Sons Inc.; 18×3″ W2-¼ mm ball, New Hyde Park, N.Y. 11040) fitted into a 1 mL syringe into the mouth of the rat down the trachea to just above the main carina. When inserting the gavage needle into the trachea, proper insertion was detected by feeling for the roughness of the cartilage rings under the skin of the throat using the ball of the gavage needle. Doses were administered into the lungs utilizing this method, and followed by removal of the gavage needle.
(§2) Fourteen (N=7/Group) fasted male rats (Hilltop Lab Animals, Scottsdale, Pa. (300-350 g)) with indwelling jugular vein catheters (JVC) were used for this study.
The in-vivo intratracheal rat study was conducted essentially as described in Example 8 above.

For data set [3], the system named is blood glucose. Put plainly: Blood glucose following intratracheal administration of 750-1 PEG insulin in rats (Example 9, P-2001-025). The data set is classed as in vivo, male rats. Conditions: i.t. As for the experimental part: as §1, §2
(§3) The in-vivo rat study was conducted essentially as described in Example 8 above.

A short description of data set [4]: Intratracheal administration of 750-2 PEG insulin in rats (Example 11, P-2002-003). As for the experimental part: as §1, §2, §3
Absolute bioavailability was calculated as follows: [formula]

Data set [5] deals with blood glucose. Conditions: i.t. How it is done:
as §1, §2

Data set [6] relates to blood glucose. The settings on record: rats, 20, 30, 40 μg/animal.

Some results are limits rather than exact numbers.

With “2K PEG insulin: insulin pegylated in non-site specific (random) fashion with linear mPEG-succinimidyl propionate ~2,000 Daltons; mixture of mono and di-pegylated product”, the “glucose levels at time points past about 6 hours compared with non-pegylated insulin” value in data set [1] (600 μg, 900 μg and 1200 μg per animal) is given as “suppressed significantly below those of non-pegylated insulin”. In data set [1] (300-1200 μg/animal), the “dose response of decrease in blood glucose concentration” value was “Good dose response”. Also, the “time point at which maximum glucose suppression was achieved” value in data set [1] (Example 12) is “about 3 hours”.

On to “750-1 PEG insulin: 750 PEG insulin composition prepared at molar ratio of PEG reagent (mPEG-SPA-750) to insulin of 7:1”, for which, in data set [2] (Example 10, 80 and 160 μg/animal), the “duration of glucose suppression” value is more than 25 h. The “glucose levels at 8 hours, times lower than for unmodified insulin” value in data set [2] (Example 10, 8 hours) is on record as “about 1.5 times”. The “glucose suppression over the 12 hour period compared with unmodified insulin” value in data set [3] (Example 9) was “significantly increased”. Besides, in data set [3] (Example 9), the “onset of action (suppression of glucose)” value is given as “rapid onset of action comparable to native insulin”. In addition, in data set [3] (Example 9), the “time at which glucose levels had not yet returned (duration of glucose suppression)” value was more than 12 h. Also, the “time to reach maximum glucose lowering” value in data set [3] (Example 9, 100 μg dose) was not below 6 h; in data set [3] (Example 9, 300 μg dose) it was not below 8 h; in data set [3] (Example 9, 500 μg dose), “at least 4 hours”. Further, the “mean serum insulin and mean blood glucose concentrations following intratracheal instillation (FIG. 10, FIG. 11)” value in data set [4] (i.t., 80 μg/animal) is “Results similar to those in Examples 9 and 10”.

Consider “750-2 PEG insulin: 750 PEG insulin composition prepared at molar ratio of PEG reagent (mPEG-SPA-750) to insulin of 3:1”, for which the TMax in data set [4] (rat, in vivo) was 1.22 h.

Regarding “N^αB1-Methoxypoly(ethylene glycol)5K- propionamido-insulin [5K PEG insulin]”, the “lowering of blood glucose compared with non-pegylated insulin” value in data set [5] (150 μg/animal vs non-pegylated insulin 40 μg/animal) was “less effective than non-pegylated insulin”. The “lowering of blood glucose when administered to the lung” value in data set [5] (150 μg/animal, male rats) is reported as “effective in lowering blood glucose”. Moreover, the “bioactivity (ability to lower blood glucose)” value in data set [6] (i.v.) was “possesses bioactivity”. In data set [6], the “glucose levels following i.v. administration” value is “dose dependent decrease”.
